Patent US12479843B2, “Spiro ring-containing quinazoline compounds” (WIGEN BIOMEDICINE TECHNOLOGY (SHANGHAI) CO., LTD., priority 2019, dated 2025)
pIC50: −log10 of the molar value.

Columns and labels:
pERK level in H358 cells = assay: pERK and ERK protein content assay in H358 cells (ELISA); assay type: cell-based; details: Homo sapiens, NCI-H358, compound 1 μM, 24 h, pERK/ERK ratio compared with DMSO group, read-out: Inhibition rate (%) of pERK level
Procedure: H358 cells were seeded in a 24-well plate. After one day of growth, a test compound (at a concentration of 1 μM) was added. After 24 h of action of the compound, the cells were lysed, and the cell lysate was transferred to a 96-well ELISA plate. The levels of pERK and ERK in the lysate were measured using an ELISA kit (abcam 176660). The ratio of pERK to ERK was calculated and compared with that of the DMSO group, and the percentage of inhibition of pERK activity by the compound was calculated.

H358 cells = assay: Antiproliferative activity against H358 cells (Cell Titer Glow, ultra-low attachment plate); assay type: cell-based; details: Homo sapiens, NCI-H358, 72 h, 96-well ultra-low attachment plate, three days after addition of compound, Cell Titer Glow
Procedure: 2500 H358 cells were seeded in a 96-well ultra-low attachment plate (corning, 7007). After one day of growth, a serially diluted compound (a maximum concentration of 5 μM, 5-fold dilution, a total of five doses) was added. Three days after the addition of the compound, Cell Titer Glow (Promega, G9681) was added to evaluate pellet growth, and the IC50 value was calculated.

Compound | pIC50 (H358 cells) | inhibition at 1 µM (pERK level in H358 cells) [%]
C=C(F)C(=O)N1CC2(CCN(c3nc(N4CC5(CCN(CCCOC)CC5)C4)nc4c(OCC(F)(F)F)c(-c5c(C)ccc6[nH]ncc56)c(C5CC5)cc34)CC2)C1 [Compound 96] | > 6.52 | > 90
C=CC(=O)N1CC2(CCN(c3nc(N4CCC5(CN(C)C5)C4)nc4c(OCC(F)(F)F)c(-c5c(C)ccc6[nH]ncc56)c(C5CC5)cc34)CC2)C1 [Compound 97] | 6.00 to 6.52 | 50 to 90
C=C(F)C(=O)N1CC2(CCN(c3nc(N4CCC5(CN(C)C5)C4)nc4c(OCC(F)(F)F)c(-c5c(C)ccc6[nH]ncc56)c(C5CC5)cc34)CC2)C1 [Compound 98] | 6.00 to 6.52 | 50 to 90
C=CC(=O)N1CC2(CCN(c3nc(N4CCC5(CN(CCOC)C5)C4)nc4c(OCC(F)(F)F)c(-c5c(C)ccc6[nH]ncc56)c(C5CC5)cc34)CC2)C1 [Compound 99] | > 6.52 | > 90
C=C(F)C(=O)N1CC2(CCN(c3nc(N4CCC5(CN(CCOC)C5)C4)nc4c(OCC(F)(F)F)c(-c5c(C)ccc6[nH]ncc56)c(C5CC5)cc34)CC2)C1 [Compound 100] | > 6.52 | > 90
C=CC(=O)N1CC2(CCN(c3nc(N4CCC5(CC4)CN(CCOC)C5)nc4c(OCC(F)(F)F)c(-c5c(C)ccc6[nH]ncc56)c(C5CC5)cc34)CC2)C1 [Compound 103] | > 6.52 | > 90
C=C(F)C(=O)N1CC2(CCN(c3nc(N4CCC5(CC4)CN(CCOC)C5)nc4c(OCC(F)(F)F)c(-c5c(C)ccc6[nH]ncc56)c(C5CC5)cc34)CC2)C1 [Compound 104] | 6.00 to 6.52 | 50 to 90
C=CC(=O)N1CC2(CCN(c3nc(N4CCC5(CCN(CCOC)CC5)CC4)nc4c(OCC(F)(F)F)c(-c5c(C)ccc6[nH]ncc56)c(C5CC5)cc34)CC2)C1 [Compound 107] | 6.00 to 6.52 | 50 to 90
C=C(F)C(=O)N1CC2(CCN(c3nc(OC4CN(C)C4)nc4c(OCC(F)(F)F)c(-c5c(C)ccc6[nH]ncc56)c(C5CC5)cc34)CC2)C1 [Compound 110] | > 6.52 | > 90
C=C(F)C(=O)N1CC2(CCN(c3nc(OC4CN(C5COC5)C4)nc4c(OCC(F)(F)F)c(-c5c(C)ccc6[nH]ncc56)c(C5CC5)cc34)CC2)C1 [Compound 112] | 6.00 to 6.52 | 50 to 90
C=C(F)C(=O)N1CC2(CCN(c3nc(OC4CN(CCOC)C4)nc4c(OCC(F)(F)F)c(-c5c(C)ccc6[nH]ncc56)c(C5CC5)cc34)CC2)C1 [Compound 114] | > 6.52 | > 90
C=CC(=O)N1CC2(CCN(c3nc(OC[C@@H]4COCCN4C)nc4c(OCC(F)(F)F)c(-c5c(C)ccc6[nH]ncc56)c(C5CC5)cc34)CC2)C1 [Compound 115] | 6.00 to 6.52 | 50 to 90
C=C(F)C(=O)N1CC2(CCN(c3nc(OC[C@@H]4COCCN4C)nc4c(OCC(F)(F)F)c(-c5c(C)ccc6[nH]ncc56)c(C5CC5)cc34)CC2)C1 [Compound 116] | 6.00 to 6.52 | 50 to 90
C=C(F)C(=O)N1CC2(CCN(c3nc(OC4C5CC4CN(CCOC)C5)nc4c(OCC(F)(F)F)c(-c5c(C)ccc6[nH]ncc56)c(C5CC5)cc34)CC2)C1 (centres unmarked) [Compound 120] | 6.00 to 6.52 | 50 to 90
C=C(F)C(=O)N1CC2(CCN(c3nc(OC4CC5(C4)CN(C)C5)nc4c(OCC(F)(F)F)c(-c5c(C)ccc6[nH]ncc56)c(C5CC5)cc34)CC2)C1 [Compound 124] | > 6.52 | > 90
C=C(F)C(=O)N1CC2(CCN(c3nc(OC4CC5(C4)CN(CCOC)C5)nc4c(OCC(F)(F)F)c(-c5c(C)ccc6[nH]ncc56)c(C5CC5)cc34)CC2)C1 [Compound 126] | > 6.52 | > 90
C=CC(=O)N1CC2(CCN(c3nc(OC4CC5(CCN(C)CC5)C4)nc4c(OCC(F)(F)F)c(-c5c(C)ccc6[nH]ncc56)c(C5CC5)cc34)CC2)C1 [Compound 129] | > 6.52 | > 90
C=C(F)C(=O)N1CC2(CCN(c3nc(OC4CC5(CCN(C)CC5)C4)nc4c(OCC(F)(F)F)c(-c5c(C)ccc6[nH]ncc56)c(C5CC5)cc34)CC2)C1 [Compound 130] | > 6.52 | > 90
C=C(F)C(=O)N1CC2(CCN(c3nc(OC4CC5(CCN(CCOC)CC5)C4)nc4c(OCC(F)(F)F)c(-c5c(C)ccc6[nH]ncc56)c(C5CC5)cc34)CC2)C1 [Compound 132] | > 6.52 | > 90
C=C(F)C(=O)N1CC2(CCN(c3nc(OC4CC5(CCN(C(C)CC)CC5)C4)nc4c(OCC(F)(F)F)c(-c5c(C)ccc6[nH]ncc56)c(C5CC5)cc34)CC2)C1 (centres unmarked) [Compound 134] | > 6.52 | > 90
C=CC(=O)N1CC2(CCN(c3nc(OC4CCC5(CC4)CN(C)C5)nc4c(OCC(F)(F)F)c(-c5c(C)ccc6[nH]ncc56)c(C5CC5)cc34)CC2)C1 [Compound 135] | 6.00 to 6.52 | 50 to 90

The next lines start with results.

pIC50 (H358 cells) | Compound | inhibition at 1 µM (pERK level in H358 cells) [%]
> 6.52 | C=CC(=O)N1CC2(CCN(c3nc(N4CCC5(CCN(CCOC)CC5)C4)nc4c(OCC(F)(F)F)c(-c5c(C)ccc6[nH]ncc56)c(C5CC5)cc34)CC2)C1 [Compound 101] | > 90
> 6.52 | C=C(F)C(=O)N1CC2(CCN(c3nc(N4CCC5(CCN(CCOC)CC5)C4)nc4c(OCC(F)(F)F)c(-c5c(C)ccc6[nH]ncc56)c(C5CC5)cc34)CC2)C1 [Compound 102] | > 90
> 6.52 | C=CC(=O)N1CC2(CCN(c3nc(N4CCC5(CCN(CCOC)C5)CC4)nc4c(OCC(F)(F)F)c(-c5c(C)ccc6[nH]ncc56)c(C5CC5)cc34)CC2)C1 [Compound 105] | > 90
6.00 to 6.52 | C=C(F)C(=O)N1CC2(CCN(c3nc(N4CCC5(CCN(CCOC)C5)CC4)nc4c(OCC(F)(F)F)c(-c5c(C)ccc6[nH]ncc56)c(C5CC5)cc34)CC2)C1 [Compound 106] | 50 to 90
6.00 to 6.52 | C=C(F)C(=O)N1CC2(CCN(c3nc(N4CCC5(CCN(CCOC)CC5)CC4)nc4c(OCC(F)(F)F)c(-c5c(C)ccc6[nH]ncc56)c(C5CC5)cc34)CC2)C1 [Compound 108] | 50 to 90
> 6.52 | C=CC(=O)N1CC2(CCN(c3nc(OC4CN(C)C4)nc4c(OCC(F)(F)F)c(-c5c(C)ccc6[nH]ncc56)c(C5CC5)cc34)CC2)C1 [Compound 109] | > 90
> 6.52 | C=CC(=O)N1CC2(CCN(c3nc(OC4CN(C5COC5)C4)nc4c(OCC(F)(F)F)c(-c5c(C)ccc6[nH]ncc56)c(C5CC5)cc34)CC2)C1 [Compound 111] | > 90
> 6.52 | C=CC(=O)N1CC2(CCN(c3nc(OC4CN(CCOC)C4)nc4c(OCC(F)(F)F)c(-c5c(C)ccc6[nH]ncc56)c(C5CC5)cc34)CC2)C1 [Compound 113] | > 90
> 6.52 | C=CC(=O)N1CC2(CCN(c3nc(OC[C@@H]4COCCN4CCOC)nc4c(OCC(F)(F)F)c(-c5c(C)ccc6[nH]ncc56)c(C5CC5)cc34)CC2)C1 [Compound 117] | > 90
> 6.52 | C=C(F)C(=O)N1CC2(CCN(c3nc(OC[C@@H]4COCCN4CCOC)nc4c(OCC(F)(F)F)c(-c5c(C)ccc6[nH]ncc56)c(C5CC5)cc34)CC2)C1 [Compound 118] | > 90
> 6.52 | C=CC(=O)N1CC2(CCN(c3nc(OC4C5CC4CN(CCOC)C5)nc4c(OCC(F)(F)F)c(-c5c(C)ccc6[nH]ncc56)c(C5CC5)cc34)CC2)C1 (centres unmarked) [Compound 119] | 50 to 90
> 6.52 | C=CC(=O)N1CC2(CCN(c3nc(OC4CC5CC4CN5CCOC)nc4c(OCC(F)(F)F)c(-c5c(C)ccc6[nH]ncc56)c(C5CC5)cc34)CC2)C1 (centres unmarked) [Compound 121] | 50 to 90
6.00 to 6.52 | C=C(F)C(=O)N1CC2(CCN(c3nc(OC4CC5CC4CN5CCOC)nc4c(OCC(F)(F)F)c(-c5c(C)ccc6[nH]ncc56)c(C5CC5)cc34)CC2)C1 (centres unmarked) [Compound 122] | 50 to 90
> 6.52 | C=CC(=O)N1CC2(CCN(c3nc(OC4CC5(C4)CN(C)C5)nc4c(OCC(F)(F)F)c(-c5c(C)ccc6[nH]ncc56)c(C5CC5)cc34)CC2)C1 [Compound 123] | > 90
> 6.52 | C=CC(=O)N1CC2(CCN(c3nc(OC4CC5(C4)CN(CCOC)C5)nc4c(OCC(F)(F)F)c(-c5c(C)ccc6[nH]ncc56)c(C5CC5)cc34)CC2)C1 [Compound 125] | > 90
> 6.52 | C=CC(=O)N1CC2(CCN(c3nc(OC4CC5(C4)CN(C4COC4)C5)nc4c(OCC(F)(F)F)c(-c5c(C)ccc6[nH]ncc56)c(C5CC5)cc34)CC2)C1 [Compound 127] | > 90
> 6.52 | C=C(F)C(=O)N1CC2(CCN(c3nc(OC4CC5(C4)CN(C4COC4)C5)nc4c(OCC(F)(F)F)c(-c5c(C)ccc6[nH]ncc56)c(C5CC5)cc34)CC2)C1 [Compound 128] | > 90
> 6.52 | C=CC(=O)N1CC2(CCN(c3nc(OC4CC5(CCN(C6COC6)CC5)C4)nc4c(OCC(F)(F)F)c(-c5c(C)ccc6[nH]ncc56)c(C5CC5)cc34)CC2)C1 [Compound 133] | > 90
6.00 to 6.52 | C=C(F)C(=O)N1CC2(CCN(c3nc(OC4CCC5(CC4)CN(C)C5)nc4c(OCC(F)(F)F)c(-c5c(C)ccc6[nH]ncc56)c(C5CC5)cc34)CC2)C1 [Compound 136] | 50 to 90
